Data set [1] can be described thus: Solubility evaluation of diols containing an acid group in NMP or DPGDME. For Solubility, DMBA in DPGDGME (75° C.): key: An entry of 'Yes' indicates completely soluble; an entry of 'No' means not fully soluble. For Solubility, DMBA in NMP (25° C.): key: An entry of 'Yes' indicates completely soluble; an entry of 'No' means not fully soluble. For Solubility, DMPA in DPDGME (95° C.): key: An entry of 'Yes' indicates completely soluble; an entry of 'No' means not fully soluble. For Solubility, DMPA in NMP (25° C.): key: An entry of 'Yes' indicates completely soluble; an entry of 'No' means not fully soluble. The class given is physicochemical. The protocol:
The solubility of certain diols containing an acid group (2,2-dimethylolpropionic acid (DMPA) and 2,2-dimethylolbutanoic acid (DMBA)) in dipropylene glycol dimethyl ether (DPGDME) and in N-methyl-2-pyrrolidone (NMP) are evaluated at different temperatures. The DPGDME used is PROGLYDE™ DMM (The Dow Chemical Company). The following concentrations with corresponding amounts of DMPA or DMBA and of solvent (DPGDME or NMP) are evaluated:
Using a 30 milliliter glass vial with a 24-mm black phenolic screw cap with poly seal liner from Fisher, the […] (DMBA or DMPA) is added at 5 wt. %, 10 wt. %, 15 wt. %, 20 wt. %, and 25 wt. % in the solvent (NMP or DPGDME) as specified in Table 1. Samples are heated on a high throughput heating/mixing station from 25° C. to 100° C. in 10° C. increments while mixing at 500 rpm with a magnetic stir bar. Samples are then removed an image is taken to record solubility.

The conditions of data set [2]: animal testing; cited from earlier work.

Results on 3 molecules are retold here after patent US20240026062A1, “WATER-BASED POLYURETHANE DISPERSIONS AND THEIR PREPARATION” (Dow Global Technologies LLC, priority 2020, published 2024).

Molecules are shown by their SMILES.

As for `CCC(CO)(CO)C(=O)O` [DMBA, 2,2-dimethylolbutanoic acid], the “Solubility, DMBA in DPGDGME (75° C.)” value in data set [1] (5 weight % in DPGDGME, 75° C.) was “Yes”; in data set [1] (10 weight % in DPGDGME, 75° C.) it was “Yes”; in data set [1] (15 weight % in DPGDGME, 75° C.), “Yes”; in data set [1] (20 weight % in DPGDGME, 75° C.), “Yes”; in data set [1] (25 weight % in DPGDGME, 75° C.), “Yes”. Besides, the “Solubility, DMBA in NMP (25° C.)” value in data set [1] (5 weight % in NMP), in data set [1] (10 weight % in NMP), in data set [1] (15 weight % in NMP), in data set [1] (20 weight % in NMP) and in data set [1] (25 weight % in NMP) was “Yes” throughout. In addition, the “Solubility in DPGDME” value in data set [1] (75° C.) is “fully dissolve”. Moreover, the “Solubility in both solvents tested (NMP and DPGDME)” value in data set [1] (all concentrations up to 25 weight %, varying temperatures) was “soluble”.

Regarding `CC(CO)(CO)C(=O)O` [DMPA, 2,2-dimethylolpropionic acid], the “Solubility, DMPA in DPDGME (95° C.)” value in data set [1] (5 weight % in DPDGME, 95° C.) was “No”; in data set [1] (10 weight % in DPDGME, 95° C.) it was “No”; in data set [1] (15 weight % in DPDGME, 95° C.), “No”; in data set [1] (20 weight % in DPDGME, 95° C.), “No”; in data set [1] (25 weight % in DPDGME, 95° C.) it was “No”. The “Solubility, DMPA in NMP (25° C.)” value in data set [1] (5 weight % in NMP), in data set [1] (10 weight % in NMP), in data set [1] (15 weight % in NMP), in data set [1] (20 weight % in NMP) and in data set [1] (25 weight % in NMP) was “Yes” in each case. Also, in data set [1] (5 weight %, 95° C.), the “Solubility in DPGDGME” value is on record as “not fully soluble”. For the same molecule, the “Solubility in DPGDME (overall)” value in data set [1] (in DPGDME) was “poor”. Further, the “Solubility in NMP” value in data set [1] (room temperature (25° C.), all concentrations up to 25 weight %, upon mixing in NMP) was “completely soluble”.

`CN1CCCC1=O` [NMP, N-methyl-2-pyrrolidone]: the Reproductive toxicity result in data set [2] is reported as “shows reproductive toxicity”.
